Experimental data from US20100034749A1, “Use of a Cationic Collodal Preparation for the Diagnosis and Treatment of Ocular Diseases” (MediGene AG, priority 2006, published 2010).

Test system: laser induced CNV model in mice
Test: SLO imaging after i.v. application in laser induced CNV mouse model
Type: in vivo, C57/BI6 mice
Experimental: For animal experiments, the laser induced CNV model in mice was used as described by Tobe et al. (1998). In brief, C57/BI6 mice (8-12 weeks old) were anesthetized, pupils were dilated and 4-6 burns of 100 μm diameter were produced with a laser (100 mW, 100 μs). In 80-90% of the laser burns, CNV develops within about 14 days.
As read-out, Scanning Laser Opthalmoscopy (SLO), flat mount and histology are performed. 100 μl of the respective formulation was applied intravenously, immediately followed by SLO over a time course of about 120 min. Three different EndoTAG formulations are selected:
EndoTAG-A: DOTAP/DOPC/OG-DHPE=60/35/5 mol %, 10 mM total liposomal components in 10% trehalose (produced as described in Example 1). EndoTAG-B: DOTAP/DOPC/OG-DOPE=[…] mol %, 10 mM total liposomal components in 10% trehalose EndoTAG-C: DOTAP/DOPC/OG-DOPE/PEG-DOPE=60/30/5/5 mol %, 10 mM total liposomal components in 10% trehalose
As control, neutral liposomes (DOPC/OG-DOPE=95/5 mol %, 10 mM total lipid, in trehalose) is applied as well as an aqueous solution of Oregon Green (0.5 mM). Additional animals are used to carry out flat mounts and histology by sacrificing animals at the respective peak intensity as observed in SLO.

For Oregon Green [free dye], the “Accumulation at lesion site / neovascular sites” value (SLO after i.v. application) was “did not show an accumulation” and the “Staining of the vasculature / neovasculature” value (after 60 min, equivalent concentrations) was “no increased staining of the vasculature”.
